In series [1] the test system is Chlorella sp., Chlorella kessleri, and Nostoc commune. Kind of series: Algal efficacy on dry paint film (Modified ASTM 5589), pool Cs + Ck + Nc. Format: cell-based. As to the method:
(§1) A single biocide or blend of biocides was post added into white acrylic latex paint free of biocides to give a maximum total active ingredient/s concentration tested. This paint was then diluted with a biocide free acrylic latex paint to give targeted concentrations for the testing. Depending on the type of biocide blends tested, the total biocides concentrations varies from 400 to 3300 ppm. After biocides addition or dilution, each sample was hand mixed for at least a minute until uniformity was achieved. Each of the paint samples as well as a control sample (containing no biocide) were used to prepare films on black plastic-vinyl chloride/acetate copolymer panels (Leneta Company, Mahwah, N.J.) using a 0.0762 mm (3 mil) bird bar applicator. The panels were thoroughly dried for at least 2 days avoiding direct exposure to sunlight. Square discs (0.5 inch^2; 1.27 cm^2) were cut out from each panel and were used as the substrate for fungal and algal efficacy tests. This sample size allowed for an agar border when the sample disc was placed into the well of the test plate. Each sample was tested in duplicate.
(§2) The appropriate media (BOLD'S 3N for Chlorophytes, BG-11 for Cyanobacteria, and PDA for fungi) were used to support microbial growth. The test plates were maintained at room temp (25° C.-26° C.), in a cycled light-dark environment, for four weeks for algae. Plates for fungal challenge tests were maintained at 30° C. for four weeks. At the end of the incubation period the samples were scored for percent area covered by visible microbial growth.
(§3) Algal efficacy was tested as follows (Modified ASTM 5589).
(§4) ASTM 5589 is a standard accelerated test method for determining resistance of various coatings (including paints) to algal defacement. To accommodate for high-throughput screening, this method was scaled down from petri plates to 6-well plates. A single coupon was placed with a pair of sterile forceps at the center of the agar plug (on top) with the painted surface facing upwards. Algal inoculums were prepared by mixing equal concentrations (approximately 1×10^6 cfu/ml) and equal volumes (depending on number of samples to be inoculated) of like growing organisms.
(§5) In this synergy study, three pool of mixed algae were prepared as the test inoculum, Gloeocapsa sp. and Oscillatoria sp. a mix of cyanobacteria grown on BG-11 media; Chlorella sp., Chlorella kessleri, and Nostoc commune are unicellular chlorphytes that were mixed and grown on Bold media; Trentepohlia aurea, Tretepohlia odorata, and Calotrix parientina are filamentous algae that were mixed and grown on Bold media.
(§6) Each well that contained a tested coupon was inoculated with 400 μl of organism mixture (approximately 1×10^6 cfu/ml) making sure that the whole surface (paint film as well as the agar surrounding it) was evenly covered. The plates were incubated at room temp (25° C.-26° C.) with cyclic exposure to light (OTT-Lite model # OTL4012P, 40 Watt, 26 KLumen) and dark phases, for a period of four weeks. The total area covered was evaluated at the end of each week according to percent area covered in 5% increments.
(§7) The SI is calculated based on F. C. Kull et.
(§8) SI value of <1 in the formula indicates a synergism of the blended biocides exists.
(§9) NE=no end point at the concentration tested that will meet the percent inhibition criteria set in each SI calculation.

For series [2], the system named is Trentepohlia aurea, Tretepohlia odorata, and Calotrix parientina. Kind of series: Algal efficacy on dry paint film (Modified ASTM 5589), pool Cp + To + Ta. The settings on record: for % Inhibition Cp + To + Ta: four weeks; for % Inhibition, Cal-Tre: at the total conc printed for the same blend. Format: cell-based. The protocol:
as §1, §2, §3, §4, §5, §6, §7, §8, §9

The test system of series [3] is Gloeocapsa sp. and Oscillatoria sp. Kind of series: Algal efficacy on dry paint film (Modified ASTM 5589), pool Gs + Os. It counts as cell-based. The settings on record: for % Inhibition Gs + Os: four weeks; for % Inhibition, Os-Gl: at the total conc printed for the same blend. The protocol: as §1, §2, §3, §4, §5, §6, §7, §8, §9
Series [4] has as its system Alternaria alternata was mixed with Aureobasidium pullulans. The experiment in a line: Fungal efficacy on dry paint film (Modified ASTM 5590), pool Aa + Ap. Format: cell-based. The settings on record: 672 h, four weeks. The protocol:
(§10) Each sample was tested in duplicate.
(§11) Fungal efficacy was tested as follows (Modified ASTM 5590).

The subject of series [5] is Aspergillus niger was mixed with Penicillium funiculosum. The experiment in a line: Fungal efficacy on dry paint film (Modified ASTM 5590), pool An + Pf. To be noted: for % Inhibition An + Pf: four weeks; for % Inhibition, An-Pf: at the total conc printed for the same blend. It counts as cell-based. The protocol:
as §1, §2, §11
ASTM 5590 is a standard accelerated test method for determining resistance of various coatings (including paints) to fungal defacement. To accommodate for high-throughput screening, this method was scaled down from petri plates to 6-well plates. To set up the test, an agar plug was placed at the bottom of each well of the sterile 6-well plate. A single coupon was placed with a pair of sterile forceps at the center of the agar plug (on top) with the painted surface facing upwards. Fungal inoculums were prepared by mixing equal concentrations (approximately 1×10^6 cfu/ml) and equal volumes (depending on number of samples to be tested) of like growing organisms. For this synergy study, three pools of mixed fungi were prepared as the test inoculum. Cladosporium herbarum was mixed with Trichoderma viride, Aspergillus niger was mixed with Penicillium funiculosum and Alternaria alternata was mixed with Aureobasidium pullulans. Each well was inoculated with 400 microliter of organism mixture (approximately 1×10^6 cfu/ml) making sure that the whole surface (paint film as well as the agar surrounding it) was evenly covered. The plates were incubated at 30° C. in presence of moisture, for a period of four weeks. The total percent area covered was evaluated and recorded at the end of each week and recorded in increments of 5%.
as §7, §8, §9

Series [6] has as its system Cladosporium herbarum was mixed with Trichoderma viride. The experiment in a line: Fungal efficacy on dry paint film (Modified ASTM 5590), pool TV + Ch. It counts as cell-based. To be noted: four weeks. As to the method: as §10, §11
The test system of series [7] is green algae (Selenastrum capricornutum). The settings on record: cited from earlier work; for EbC50: biomass.
For series [8], the system named is marine algae (Skeletonema costatum). The settings on record: cited from earlier work.
Series [9] has as its system diatom (Navicula pelliculosa). To be noted: 7 day; cited from earlier work.
Series [10] has as its system blue-green algae (Anabaena flos-aquae). The settings on record: 7 day; cited from earlier work.
For series [11] the following is noted: cited from earlier work.
Series [12] deals with various algae. To be noted: cited from earlier work.
The mark [13] stands for this setting: Nostoc commune, 672 h, read-out: % Inhibition Cs + Ck + Nc.
Setting [14] is: Trentepohlia aurea, 672 h, read-out: % Inhibition Cp + To + Ta.
Where [15] appears, read: 672 h, read-out: % Inhibition Gs + Os.
[16] abbreviates: 672 h, read-out: % Inhibition An + Pf.

As a reminder, the inhibition is how much of the control response was suppressed. Usually EC50 stands for the concentration needed to bring the measured effect to its halfway point.

In brackets after ≈: the same amount, converted by molar mass. Where two headings read alike, the source gives them in different places.

For `O=C(O)CNCP(=O)(O)O` [glyphosate, N-(phosphonomethyl)glycine], the inhibition at 750 ppm amounted to 37.5% in series [1] (setting [13]); 0% in series [2] (setting [14]); 15% in series [3] (setting [15]); 7.5% in series [4] (750 ppm in paint); 0% in [5] (setting [16]); 2.5% in series [6] (672 h, 750 ppm in paint). In addition, the inhibition at 1500 ppm in series [1] (setting [13]) stood at 60%; in series [2] (setting [14]), 10%; in series [3] (setting [15]), 72.5%; in series [4] (1500 ppm in paint), 20%; in [5] (setting [16]) it was 5%; in [6] (672 h, 1500 ppm in paint), 50%. The inhibition at 2500 ppm is 80% in series [1] (setting [13]); 7.5% in series [2] (setting [14]); 90% in series [3] (setting [15]); 67.5% in series [4] (2500 ppm in paint); 10% in [5] (setting [16]); 72.5% in series [6] (672 h, 2500 ppm in paint). The EbC50 in series [7] (72 hr) was 485 mg/L; in series [7] (7 day), 13.8 mg/L. Also, the ErC50 in series [7] (72 hr, growth rate) is 460 mg/L. Further, the half-maximal effective concentration (EC50) in [8] (96 hr) is 1.3 mg/L (≈ 7.69 µM); in series [8] (7 day), 0.64 mg/L (≈ 3.79 µM); in series [9], 42 mg/L (≈ 248 µM); in series [10], 15 mg/L (≈ 88.7 µM). Besides, the solubility in water result in [11] is recorded as “relatively high”. Also, the “activity against various algae” value in series [12] was “relatively low”.
Turning to zinc glyphosate, the “% Inhibition Cp + To + Ta” value in [2] (750 ppm in paint), in series [2] (1500 ppm in paint) and in [2] (2500 ppm in paint) was 0% in each case. Besides, the “% Inhibition, Cal-Tre” value in series [2] (Cal-Tre) was 100%. Moreover, the “% Inhibition Gs + Os” value in [3] (750 ppm in paint) is reported as 15%; in series [3] (1500 ppm in paint), 72.5%; in series [3] (2500 ppm in paint), 90%. For the same compound, in series [3] (Os-Gl), the “% Inhibition, Os-Gl” value is listed as 100%. The figures for the “% Inhibition An + Pf” value in series [5] (750 ppm in paint), in series [5] (1500 ppm in paint) and in series [5] (2500 ppm in paint) were 20%, 27.5% and 30%, respectively. In [5] (An-Pf), the “% Inhibition, An-Pf” value came to 100%. The “% Inhibition TV + Ch” value is 50% in [6] (750 ppm in paint), 75% in series [6] (1500 ppm in paint) and 90% in [6] (2500 ppm in paint).
As for zinc pyrithione [ZPT], in [1] (at the total conc printed for the same blend, Ch-No), the “% Inhibition, Ch-No” value is on record as 80%. The “Total conc (minimum inhibitory concentration chosen for SI), Ch-No” value in series [1] (total active in paint, Ch-No) stood at 412.5 pppm. Also, in [2] (Cal-Tre), the “% Inhibition, Cal-Tre” value stood at 40%. For the same compound, the “Total conc (minimum inhibitory concentration chosen for SI), Cal-Tre” value in series [2] (total active in paint, Cal-Tre) is 3300 pppm. The “% Inhibition, Os-Gl” value in series [3] (Os-Gl) is listed as 100%. The “Total conc (minimum inhibitory concentration chosen for SI), Os-Gl” value in [3] (total active in paint, Os-Gl) amounted to 3300 pppm. Moreover, in [5] (An-Pf), the “% Inhibition, An-Pf” value is recorded as 0%. Besides, the “Total conc (minimum inhibitory concentration chosen for SI), An-Pf” value in series [5] (total active in paint, An-Pf) came out at 3300 pppm.

(Values after patent publication US8691726B2, “Synergistic combination of a glyphosate compound and ZPT” (Dow Global Technologies LLC, priority 2010, dated 2014).)
